Data published in PubChem BioAssay AID1918948 (Molecular Pharmacology Branch, DTP, NCI, 2023).

System: K-562 leukemia growth, % test/control
Test: Anticancer human tumor K-562 cell line growth inhibition;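 further: spheroids exposed to compounds for 7 days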;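 on viability, T/C: 100% = DMSO vehicle wells and lower values mean fewer viable cells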
Conditions: spheroids with HUVEC and MSC; for IC50: curve of first compound; for viability, T/C: stronger effect = lower value
Summary of the method: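 Drug combinations with the LSD1 inhibitor iadademstat tested on tumor cells co-cultured as spheroids with endothelial cells and mesenchymal stem cells. Concentrations descended in half-log increments from clinical Cmax or 10 microM.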

[1] = second compound 0.1 µM, first compound 0.00949 µM
[2] = second compound 0.1 µM, first compound 0.03 µM
[3] = second compound 0.1 µM, first compound 0.0949 µM
[4] = second compound 0.1 µM, first compound 0.3 µM
[5] = second compound 0.316 µM, first compound 0.00949 µM
[6] = second compound 0.316 µM, first compound 0.03 µM
[7] = second compound 0.316 µM, first compound 0.0949 µM
[8] = second compound 0.316 µM, first compound 0.3 µM
[9] = second compound 1 µM, first compound 0.00949 µM
[10] = second compound 1 µM, first compound 0.03 µM
[11] = second compound 1 µM, first compound 0.0949 µM
[12] = second compound 1 µM, first compound 0.3 µM
[13] = second compound 3.16 µM, first compound 0.00949 µM
[14] = second compound 3.16 µM, first compound 0.03 µM
[15] = second compound 3.16 µM, first compound 0.0949 µM
[16] = second compound 3.16 µM, first compound 0.3 µM
[17] = second compound 10 µM, first compound 0.00949 µM
[18] = second compound 10 µM, first compound 0.03 µM
[19] = second compound 10 µM, first compound 0.0949 µM
[20] = second compound 10 µM, first compound 0.3 µM

For CCc1c2c(nc3ccc(O)cc13)-c1cc3c(c(=O)n1C2)COC(=O)[C@]3(O)CC + NC1CC1c1ccc(-c2cccc(O)c2)cc1, the IC50 (second compound 0.1 µM) was < 0.949 nM, the IC50 (second compound 0.316 µM) was < 0.949 nM and the IC50 (second compound 1 µM) was < 0.949 nM. For the same molecule, the IC50 (second compound 3.16 µM) was < 0.949 nM, the IC50 (second compound 10 µM) was < 0.949 nM and the viability, T/C (second compound 0.1 µM, first compound 0.000949 µM) was 10.6%. The viability, T/C (second compound 0.1 µM, first compound 0.003 µM) was 4.88%, the viability, T/C [1] was 2.16% and the viability, T/C [2] was 0.75%. It also gave a viability, T/C [3] of 0.56%, a viability, T/C [4] of 0.55% and a viability, T/C (second compound 0.316 µM, first compound 0.000949 µM) of 8.09%. The viability, T/C (second compound 0.316 µM, first compound 0.003 µM) was 3.51%, the viability, T/C [5] was 1.86% and the viability, T/C [6] was 0.71%. It also gave a viability, T/C [7] of 0.44%, a viability, T/C [8] of 0.5% and a viability, T/C (second compound 1 µM, first compound 0.000949 µM) of 7.04%. The viability, T/C (second compound 1 µM, first compound 0.003 µM) was 3.48%, the viability, T/C [9] was 1.67% and the viability, T/C [10] was 0.89%. It also gave a viability, T/C [11] of 0.51%, a viability, T/C [12] of 0.57% and a viability, T/C (second compound 3.16 µM, first compound 0.000949 µM) of 7.47%. It also gave a viability, T/C (second compound 3.16 µM, first compound 0.003 µM) of 4.23%, a viability, T/C [13] of 2.63% and a viability, T/C [14] of 0.67%. For the same molecule, the viability, T/C [15] was 0.46%, the viability, T/C [16] was 0.55% and the viability, T/C (second compound 10 µM, first compound 0.000949 µM) was 5.81%. It also gave a viability, T/C (second compound 10 µM, first compound 0.003 µM) of 2.92%, a viability, T/C [17] of 1.32% and a viability, T/C [18] of 0.74%. For the same molecule, the viability, T/C [19] was 0.43% and the viability, T/C [20] was 1.23%.

Work on Nc1ccccc1NC(=O)c1ccc(CNC(=O)OCc2cccnc2)cc1 + NC1CC1c1ccc(-c2cccc(O)c2)cc1 yielded an IC50 (second compound 0.1 µM) of 180 nM, an IC50 (second compound 0.316 µM) of 173 nM and an IC50 (second compound 1 µM) of 165 nM. It also gave an IC50 (second compound 3.16 µM) of 152 nM, an IC50 (second compound 10 µM) of 121 nM and a viability, T/C [1] of 114%. The viability, T/C [2] was 111%, the viability, T/C [3] was 103% and the viability, T/C [4] was 7.04%. The viability, T/C (second compound 0.1 µM, first compound 0.949 µM) was 0.24%, the viability, T/C (second compound 0.1 µM, first compound 3 µM) was 1.31% and the viability, T/C [5] was 114%. For the same molecule, the viability, T/C [6] was 109%, the viability, T/C [7] was 97.1% and the viability, T/C [8] was 6.48%. It also gave a viability, T/C (second compound 0.316 µM, first compound 0.949 µM) of 0.2%, a viability, T/C (second compound 0.316 µM, first compound 3 µM) of 0.13% and a viability, T/C [9] of 111%. It also gave a viability, T/C [10] of 110%, a viability, T/C [11] of 92% and a viability, T/C [12] of 5.06%. It also gave a viability, T/C (second compound 1 µM, first compound 0.949 µM) of 0.25%, a viability, T/C (second compound 1 µM, first compound 3 µM) of 0.13% and a viability, T/C [13] of 111%. The viability, T/C [14] was 111%, the viability, T/C [15] was 81.3% and the viability, T/C [16] was 4.61%. The viability, T/C (second compound 3.16 µM, first compound 0.949 µM) was 0.18%, the viability, T/C (second compound 3.16 µM, first compound 3 µM) was 1.02% and the viability, T/C [17] was 104%. It also gave a viability, T/C [18] of 98.5%, a viability, T/C [19] of 62.6% and a viability, T/C [20] of 3.34%. For the same molecule, the viability, T/C (second compound 10 µM, first compound 0.949 µM) was 0.19% and the viability, T/C (second compound 10 µM, first compound 3 µM) was 1.28%.

O=C(c1cc(Cc2n[nH]c(=O)c3ccccc23)ccc1F)N1CCN(C(=O)C2CC2)CC1 + NC1CC1c1ccc(-c2cccc(O)c2)cc1 was tested, and the IC50 (second compound 0.1 µM) was 9600 nM, the IC50 (second compound 0.316 µM) was 9550 nM and the IC50 (second compound 1 µM) was > 10000 nM. The IC50 (second compound 3.16 µM) was > 10000 nM, the IC50 (second compound 10 µM) was 8390 nM and the viability, T/C (second compound 0.1 µM, first compound 0.0316 µM) was 111%. For the same molecule, the viability, T/C (second compound 0.1 µM, first compound 0.1 µM) was 108%, the viability, T/C (second compound 0.1 µM, first compound 0.316 µM) was 108% and the viability, T/C (second compound 0.1 µM, first compound 1 µM) was 106%. It also gave a viability, T/C (second compound 0.1 µM, first compound 3.16 µM) of 94.3%, a viability, T/C (second compound 0.1 µM, first compound 10 µM) of 48.4% and a viability, T/C (second compound 0.316 µM, first compound 0.0316 µM) of 107%. It also gave a viability, T/C (second compound 0.316 µM, first compound 0.1 µM) of 103%, a viability, T/C (second compound 0.316 µM, first compound 0.316 µM) of 102% and a viability, T/C (second compound 0.316 µM, first compound 1 µM) of 101%. It also gave a viability, T/C (second compound 0.316 µM, first compound 3.16 µM) of 90.2%, a viability, T/C (second compound 0.316 µM, first compound 10 µM) of 47.9% and a viability, T/C (second compound 1 µM, first compound 0.0316 µM) of 98%. The viability, T/C (second compound 1 µM, first compound 0.1 µM) was 100%, the viability, T/C (second compound 1 µM, first compound 0.316 µM) was 102% and the viability, T/C (second compound 1 µM, first compound 1 µM) was 98.8%. The viability, T/C (second compound 1 µM, first compound 3.16 µM) was 89.9%, the viability, T/C (second compound 1 µM, first compound 10 µM) was 50.1% and the viability, T/C (second compound 3.16 µM, first compound 0.0316 µM) was 104%. The viability, T/C (second compound 3.16 µM, first compound 0.1 µM) was 101%, the viability, T/C (second compound 3.16 µM, first compound 0.316 µM) was 100% and the viability, T/C (second compound 3.16 µM, first compound 1 µM) was 96.9%. It also gave a viability, T/C (second compound 3.16 µM, first compound 3.16 µM) of 87.8%, a viability, T/C (second compound 3.16 µM, first compound 10 µM) of 51.2% and a viability, T/C (second compound 10 µM, first compound 0.0316 µM) of 100%. It also gave a viability, T/C (second compound 10 µM, first compound 0.1 µM) of 99.8%, a viability, T/C (second compound 10 µM, first compound 0.316 µM) of 101% and a viability, T/C (second compound 10 µM, first compound 1 µM) of 96%. The viability, T/C (second compound 10 µM, first compound 3.16 µM) was 79.2% and the viability, T/C (second compound 10 µM, first compound 10 µM) was 44.7%.
